Experimental data as given in patent publication US10125121B2, “FYN kinase inhibitors” (ROTTAPHARM BIOTECH S.R.L., priority 2015, dated 2018).
Like-named read-outs stand apart in the source and are kept apart here. Blank lines part the entries; values can stand above or below the compound they belong to.

Columns and labels:
[1] = target: active FYN (human recombinant, 62.7 kDa) (Homo sapiens, UniProt P06241); test: In vitro kinase assay (Z′-LYTE FRET); assay type: biochemical; details: read-out: IC50(nM) FYN INHIBITION
Protocol: Assays to determine the kinase inhibitory activity of compounds were performed using an automatic liquid handling device (Microlab STAR Hamilton) and Z′-LYTE™ Kinase Assay Platform, a Fluorescence Resonance Energy Transfer (FRET)-based assay platform compatible with high-throughput screening (HTS) applications. The assay employs a fluorescence-based, coupled-enzyme format and utilizes the differential sensitivity of phosphorylated and non-phosphorylated peptides to proteolytic cleavage.
All reagents were diluted in reaction buffer and the kinase reaction was carried out in a total volume of 10 μl, for 60 minutes at 25° C. The 0% Phosphorylation (i.e. no ATP) and 100% Phosphorylation (i.e. synthetically phosphorylated peptide supplied) Assay Controls, included in each plate, allowed to calculate the percent phosphorylation achieved in the specific reaction well. The 0% Inhibition and 0% Phosphorylation (i.e. 100% Inhibition) Controls define the dynamic range in the screen. At the end of incubation, a secondary reaction (the Development Reaction) started by adding 5 μl of Development Reagent, containing a site-specific protease that recognizes and cleaves non-phosphorylated peptides, and was interrupted after 60 minutes with 5 μl/sample of Stop Reagent.
The compounds were tested in a range of concentrations 10^−6-10^−9 M.
Results are expressed as percentage of inhibition and the IC50 values were calculated by non-linear curve fitting using GraphPad™ Prism software.

[2] = test system: NF-kB activation in JB6 CI 41-5a (P+) cells; test: Gene reporter (GR) assay, NF-kB luciferase after TNFα stimulation; assay type: cell-based, murine; details: 1 h pre-treatment, 2 ng/ml TNFα for 4 h, read-out: IC50(nM) GR Inhibition
Text: To determine if the compounds of the invention were active also in a cellular model, a gene reporter assay was established in a cell line (JB6 CI 41-5a (P+)) know to activate Fyn kinase via an inflammatory stimuli (TNFα). GR assay measures the activation of the nuclear transcription factor NF-kB, situated down-stream the Fyn activation pathway. Products active in this analysis has to penetrate in the cell and inhibit the activation pathway of NF-kB.
The murine epithelial cell line JB6 CI 41-5a (P+) (ATCC® Cat. # CRL-2010) was stably transfected with the pGL4.32[luc2P/NFkB-RE/Hygro] vector (Promega). Clonal selection was achieved by limiting dilution in MEM (+Earle's BSS+1.5 g/l sodium bicarbonate+0.1 mM NEAA)+GlutaMAX™-I, +1 mM sodium pyruvate, +5% FBS+80 μg/ml Hygromycin B. The clones were tested for their response to TNFα stimulus. The obtained transfected cells (JB6(P+) NFkB-RE-luc2P T3-C10) contained a firefly luciferase gene (luc2P) under the control of minimal TATA promoter with multiple Nuclear Factor-kB response elements (NFkB-REs). These NFkB-REs are DNA binding sequences for the NF-kB transcription factor.
JB6(P+) NFkB-RE-luc2P T3-C10 cells were used for the analysis of NF-kB activity modulation, after TNFα stimulation, by Fyn-inhibitors (Hwang et al.; Biochem. Pharmacol. 2009, 77 (7):1213-22).
6000 cells/well were plated in a 96× well plate. After 24 h new medium without antibiotics was given. After further 24 h the cells were pre-treated with the different compounds for 1 h and then stimulated with 2 ng/ml TNFα for 4 h. In each experiments two positive standards were always used, and each tested condition was analyzed in quadruplicate.
The luciferase analysis was performed with ONE-Glo™+ToxLuciferase Reporter and Cell Viability Assay kit (Promega). This assay combined luciferase assay chemistry with a cell viability marker to better understand reporter gene expression in the context of cell health. The assay uses a two-step process. The first part of the assay was a non-lytic fluorescence assay (CellTiter-Fluor™ Cell Viability Assay) that measured the relative number of live cells in a culture population, as it measures a conserved and constitutive protease activity within live cells. The live-cell protease activity was restricted to intact viable cells and was measured using a fluorogenic, cell-permeant peptide substrate (glycyl-phenylalanyl-aminofluorocoumarin; GF-AFC). The generated fluorescent signal, proportional to the number of living cells, was measured with EnVision microplate reader (PerkinElmer) using an excitation wavelength of 400 nm and emission wavelength of 500 nm.
The second part of the assay uses the ONE-Glo™ Luciferase Assay System to quantify firefly luciferase reporter gene expression. The ONE-Glo™ Assay contained a fluoro-luciferin substrate, more tolerant to sample components than standard luciferase assay reagents. Luminescence was measured with EnVision microplate reader (PerkinElmer).
Compounds of Formula (I) were tested for their capacity to penetrate into the cell and inhibit the activation pathway of NF-kB.

[3] = test system: CFA induced hyperalgesia; test: CFA-induced inflammatory pain in rats (Randall-Selitto paw withdrawal threshold); assay type: in vivo; details: rat, 24 h after administration
Protocol: Male Wistar rats were injected into the right hind footpad with 300 μg of Mycobacterium tuberculosis in 100 μL of liquid paraffin (Complete Freund's Adjuvant; CFA). Seventy-two hours later, compounds 2 and 26 were administered subcutaneously and 24 h after the administration, the response to noxious mechanical stimulation was assessed by measuring paw withdrawal threshold (PWT) with an analgesimeter of the Randall-Selitto type. Animals were gently restrained, and steadily increasing pressure was applied to the dorsal surface of both the ipsi-lateral (CFA-treated) and the contra-lateral paw via a dome-shaped plastic tip.
100% protection means that the animal treated with the compound and CFA can tolerate the same stimulus (weight) as the control animal which has not received CFA treatment.

[4] = test system: JB6 CI 41-5a (P+); test: Toxicity in JB6 cells (MTT method); assay type: cell-based, murine; details: 3 μmolar, 24 hours of incubation
Protocol: Cell toxicity analysis in JB6 CI 41-5a (P+) is important to determine if the results obtained in GR assay are due to the pharmacological effect or to a toxicity effect of the products.
The murine epithelial cell line JB6 CI 41-5a (P+) (ATCC® Cat. # CRL-2010) was used to analyze the products cell toxicity by MTT method. 10^4 cells/well were plated in a 96× well plate MEM 5%. 48 h after plating the cells were pre-treated with the different compounds and positive standards for 1 h and then stimulated with TNFα (to simulate the same experimental conditions used in the gene reporter assay) for 4 and 24 h. At the end of the incubation time, the medium was removed and was substituted with a mixture 10:1 of MEM 5% MTT (2 mg/ml) for 1 h at 37° C. in the cell incubator. MTT is a tetrazolium salt especially useful for assaying the quantification of living metabolically active cells; it works by being metabolized by mitochondrial dehydrogenases to form a formazan dye (salt). After this incubation the supernatant was removed and the precipitated salt was dissolved with 100 μl of DMSO. The plate was then read at 540 nm. 100 μl of DMSO alone (without cells) were used as a blank, that was subtracted from the measure of each sample.

[5] = Pharmacokinetics in rats; assay type: in vivo, rat; details: 1 mg/kg orally
[6] = test system: mechanical hyperalgesia in meniscal tear osteoarthritis; test: Surgically induced meniscal tear osteoarthritis in the rat (MMT); assay type: in vivo; details: for Pain threshold / Pain threshold: MPE (%): 10 mg/kg daily orally
Text: Male Sprague Dawley rats (Charles River) approximately 350 g body weight were used. Rats were anesthetized using 2.5% isoflurane in oxygen with a flow rate of 1 I per minute. The right hind leg was shaved and surgically prepared. The medial collateral ligament was exposed and transected. The meniscus was grasped with a hemostat and reflected proximally toward the femur. The meniscus was cut through its full thickness at the narrowest point. The connective tissue layer and the skin were closed with coated Vicryl 8-0 and 4-0 silk sutures, respectively. Sham operated animals underwent an identical procedure with the exception that the medial collateral ligament was exposed but not transected. After a recovery period of 2 weeks, mechanical hyperalgesia was evaluated for the following 4 weeks, once a week, before and 90 minutes after drugs administration. Pharmacological oral treatment was performed for 28 days, starting from 14 days after surgery. After 6 weeks from surgery, rats (ten animals per group) were sacrificed and the ipsilateral knee was removed for histopathological analysis.
The maximum possible effect (MPE %) was calculated by the following formula: 100*(Compound−Vehicle)/(Sham−Vehicle)

active FYN (human recombinant, 62.7 kDa), sequence (P06241 whole entry): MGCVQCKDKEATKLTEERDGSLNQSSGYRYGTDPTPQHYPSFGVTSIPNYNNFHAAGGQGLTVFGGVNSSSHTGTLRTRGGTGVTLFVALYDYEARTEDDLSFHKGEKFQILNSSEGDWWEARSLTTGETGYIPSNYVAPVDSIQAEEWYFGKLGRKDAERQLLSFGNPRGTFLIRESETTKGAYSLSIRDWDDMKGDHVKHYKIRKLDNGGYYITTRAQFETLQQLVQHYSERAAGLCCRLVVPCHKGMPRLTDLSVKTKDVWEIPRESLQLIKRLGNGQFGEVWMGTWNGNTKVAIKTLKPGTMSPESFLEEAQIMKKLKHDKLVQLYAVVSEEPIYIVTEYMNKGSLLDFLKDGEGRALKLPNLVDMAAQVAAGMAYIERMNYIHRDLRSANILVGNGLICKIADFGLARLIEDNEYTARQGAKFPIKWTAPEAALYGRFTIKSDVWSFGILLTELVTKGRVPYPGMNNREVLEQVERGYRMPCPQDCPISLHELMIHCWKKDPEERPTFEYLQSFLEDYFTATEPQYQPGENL

IC50 [1]: 9 nM | IC50 ([2]; Mus musculus): 247 nM
Compound: O=C(Nc1ccc(CN2CCN(c3nccc(Nc4cc(C5CC5)[nH]n4)n3)CC2)cc1)c1ncccc1C(F)(F)F [Compound 26, N-(4-((4-(4-((5-cyclopropyl-1H-pyrazol-3-yl)amino)pyrimidin-2-yl)piperazin-1-yl)methyl)phenyl)-3-(trifluoromethyl)-picolinamide]
% protective effect vs. CFA induced hyperalgesia [3]; 3: 100%

Compound: CC(C)(C)n1nc(-c2ccc(Cl)cc2)c2c(N)ncnc21 [PP2, reference compound]
IC50 [2]: 505 nM | percent residual cell vitality [4]: 18% | % protective effect vs. CFA induced hyperalgesia [3]; 3: 45% | % protective effect vs. CFA induced hyperalgesia [3]; 10: 47% | AUC (0-24 h) [5]: 160 ng·h/mL | Pain threshold ([6]; day 14 post surgery): 285 g | Pain threshold ([6]; day 21 post surgery): 278 g | Pain threshold: MPE (%) ([6]; day 21 post surgery): 1.8% | Pain threshold ([6]; day 28 post surgery): 267 g | Pain threshold: MPE (%) ([6]; day 28 post surgery): 0% | Pain threshold ([6]; day 35 post surgery): 262 g | Pain threshold: MPE (%) ([6]; day 35 post surgery): 0% | Pain threshold ([6]; day 42 post surgery): 253 g | Pain threshold: MPE (%) ([6]; day 42 post surgery): 0% | tolerability ([6]; rat, oral, doses higher than 10 mg/kg): not tolerated
